In BindingDB's records for doi:10.1021/jm030050p (Johnson & Johnson Pharmaceutical Research & Development, 2003):
Where a name gives a salt, the structure may show the parent alone.

Molecular target: Trypsin (Bos taurus)
Assay: In vitro inhibition of bovine trypsin.

SMILES | Ki [nM]
COS(=O)(=O)N1CCC[C@H]1C(=O)N[C@@H](CCCNC(=N)N)C(=O)c1nc2ccccc2s1 [2-[1-(Benzothiazole-2-carbonyl)-4-guanidino-butylcarbamoyl]-pyrrolidine-1-sulfonic acid methyl ester; TFA] | 38
CC(=O)N1C[C@H](O)C[C@H]1C(=O)NC(CCCN)C(=O)c1nc2ccccc2s1 (some centres not stated) [1-Acetyl-4-hydroxy-pyrrolidine-2-carboxylic acid [4-amino-1-(benzothiazole-2-carbonyl)-butyl]-amide; TFA] | 16
